Data: patent publication US20240158339A1, “TYRAMINE CONTAINING HYDROXYCINNAMIC ACID AMIDE DERIVATIVES AND METHODS OF USE THEREOF” (Brightseed, Inc., priority 2018, published 2024)
Entries after “also recorded” stand apart in the source; their conditions may differ.

Tests used:
diet-induced obese mice = assay: Efficacy in diet-induced obese mice; type: in vivo
Description: Alkaline Phosphatase (ALP) Quantitation. Increased levels of ALP in blood are considered indicative of liver function abnormalities. Thus, ALP was assayed in accordance with known methods (Kiselyuk, et al. (2012) Chem. Biol. 19(7):806-818). Briefly, prior to sacrifice, blood was drawn and analyzed using a VetScan blood analyzer, measuring alkaline phosphatase (ALP, IU/L), alanine aminotransferase (ALT, IU/L), gamma glutamyl transferase (GGT, IU/L), bile acids (BA, μmol/L), total bilirubin (TBIL, mg/dL), albumin (ALB, g/dL), blood urea nitrogen (BUN, mg/dL), and cholesterol (CHOL, mg/dL).
Triglyceride (TG) Quantitation. TG quantity was assayed using a Triglyceride Colorimetric Assay Kit (Cayman Chemicals; Ann Arbor, MI) according to the manufacturer's instructions.
Lipid Droplet Size Analysis. All slides were scanned at a magnification of 20× using the Aperio Scanscope FL system (Aperio Technologies Inc.; Vista, CA). The appropriate dyes were assigned and illumination levels were calibrated using a preset procedure; the parameters were saved and applied to all slides. The acquired digital images represented whole tissue sections. Sections were evaluated for image quality. All acquired images were subsequently placed in dedicated project folders, and stored on a designated local server. Selected areas of the slides were selected using Aperio Imagescope (version 12 Aperio Technologies Inc.). For analysis, slides were viewed, whole tissue areas were selected and analyzed using the web-based Image Scope viewer. Slides were quantified using the ‘Color Deconvolution v9’ algorithm for oil redo staining (version 11 Aperio Technologies Inc.). The algorithm was optimized using a preset procedure to maximize the strong red color positive oil droplets signal to noise ratio and the subsequent macro was saved and applied to all slides.
HNF4α Immunostaining in Organ Samples. Samples were harvested from mice, fixed in 4% paraformaldehyde and embedded in paraffin or O.C.T. freezing media (Sakura Finetek; Torrance, CA). Slides of 5 μm thickness were washed four times with PBS and treated with 0.3% Triton™ in PBS for 10 minutes. Antigen retrieval was carried out with CitriSolv™ (Fisher Scientific; Waltham, MA) for 10 minutes in sub-boiling temperature. After washing with PBS for 10 minutes, slides were incubated in blocking solution with 5% normal donkey serum (Jackson Immuno Research; West Grove, PA) for 60 minutes at room temperature. Cells were fixed in 4% paraformaldehyde for 15 minutes on 4° C. and washed with PBS, treated with 0.3% Triton™ in PBS for 10 minutes and blocked as previously described for slide samples.
Primary Antibodies. HNF4α antibodies were used (#sc-6556, Santa Cruz Biotechnology; Santa Cruz, CA and #3113, Cell Signaling Technology; Danvers, MA). For fluorescent imaging, samples were incubated with ALEXA FLOUR® 488 green-fluorescent dye or Rhodamine labeled anti-mouse, rabbit or goat and nuclei were counterstained with DAPI (4′,6-diamidino-2-phenylindole). Controls using secondary antibodies alone were used to ensure specificity of immunostaining. Fluorescently labeled sections were analyzed with a conventional inverted microscope (Olympus, PlanFl 40x/0.60) or with a confocal microscope equipped with a krypton/argon laser.
The experiments were performed to establish feedingand treatment regimens, dosing and administration regimens, as well as to provide evidence of beneficial effects of N-trans-caffeoyltyramine on glucose and lipid homeostasis, hepatic steatosis, -cell function and hepatocyte function. Twelve mice (10 weeks old) were fed a high-fat diet for four weeks to induce obesity. After four weeks, and while on the high-fat diet, six mice were administered 5% DMSO or 120 mg/kg N-trans-caffeoyltyramine twice a day intraperitoneally for 14 days. One hour after the last i.p. injection of DMSO or N-trans-caffeoyltyramine, the animals were sacrificed and blood and organ (liver, kidney, gut and pancreas) samples were collected. […]

HNF4α mRNA = HNF4α mRNA levels by quantitative PCR; type: cell-based; settings: FIG. 3
Description: Expression of Insulin and HNF4α. RNA was purified using a RNEASY® chromatographic separation and isolation kits (Qiagen), and converted to cDNA using the gScript™ cDNA SuperMix (Quanta Biosciences). Q-PCR was conducted with cDNA corresponding to 2 μg of RNA using an Opticon Real-Time System (MJ Research) and QPCR SuperMix (BioPioneer). See All mRNA values were normalized to 18S rRNA values and are expressed as fold changes over vehicle-treated control.

## O=C(/C=C/c1ccc(O)c(O)c1)NCCc1ccc(O)cc1 [N-trans-caffeoyltyramine]
diet-induced obese mice; 120 mg/kg twice a day i.p. for 14 days vs DMSO
  lipid accumulation in the liver: decreased lipid accumulation
diet-induced obese mice; 120 mg/kg twice a day i.p. for 14 days vs DMSO, FIG. 8
  lipid droplet sizes in the liver: reduced
diet-induced obese mice; 120 mg/kg twice a day i.p. for 14 days vs DMSO, FIG. 10
  levels of triglycerides: significantly reduced
diet-induced obese mice; 120 mg/kg twice a day i.p. for 14 days vs DMSO, FIG. 11
  HNF4α expression in the pancreas: increased
diet-induced obese mice; 120 mg/kg twice a day i.p. for 14 days vs DMSO, FIG. 12
  HNF4α expression in intestines: increased
diet-induced obese mice; 120 mg/kg twice a day i.p. for 14 days vs DMSO, P=0.0042, FIG. 7
  HNF4α expression in the liver (nuclear expression): significantly increased; also recorded: increases nuclear expression of HNF4α
diet-induced obese mice; 120 mg/kg twice a day i.p. for 14 days, high-fat diet mice
  weight loss, sickness, or abnormal behaviors compared to the control group: None of the treated mice exhibited weight loss, sickness, or abnormal behaviors
diet-induced obese mice; blood, 120 mg/kg twice a day i.p. for 14 days vs DMSO, FIG. 9
  levels of alkaline phosphatase: significantly reduced
HNF4α mRNA
  HNF4α gene expression: upregulated
